Experimental data from patent EP0091995B1, “New compound having antiinflammatory, analgesic and mucoregulating activity, process for its production and relative pharmaceutical compositions” (AUSONIA FARMACEUTICI S.r.l., priority 1982, dated 1983).

Columns and labels:
[1] = tested on: Sprague-Dawley rats; test: Antiinflammatory activity, pleuritis by carrageenin (method of Vinegar); type: in vivo; details: oral route
[2] = tested on: male Wistar rat; test: Bronchosecretogogue activity (Mawatari technique); type: in vivo; details: 500 mg/kg/os; FlNa = Sodium fluoresceine
Description: The bronchosecretogogue activity has been determined in male Wistar rat by per os administration according to the method of Mawatari [Mawatari H., Kagoshima Daigaku Igaku-Zasshi, 27, 561 (1976)], comparing AFP-695 with carboxymethylcysteine and sobrerol at the doses hereinafter stated.

[3] = tested on: Rats; test: Gastrolesive action (gastric mucosa examination); type: in vivo; details: rats fasting 18 hours; 5 hours 30 minutes after treatment; Ibuprofen 100 mg/kg/os, AFP-695 150 mg/kg/os
Procedure: 5 Hours and 30 minutes after treatments, the animals have been sacrificed and the stomach has been withdrawn for gastric mucosa examination.

[4] = Acute toxicity (method of Litchfield and Wilcoxon); details: in vivo, oral, os
Description: The acute toxicity has been determined in Swiss mouse and in Wistar rat for different administration routes, according to the method of Litchfield J.T. and Wilcoxon [J. Pharm. Exp. Therap. 96, 99-113, (1949)].
The results obtained are reported in the following Table I; from the same it can be pointed out how AFP is endowed with a very low acute toxicity.

[5] = tested on: rabbits; test: Anti-cough activity, cough induced by citric acid aerosol; details: mean number of cough strokes; endoperitoneal route; Codeine 12.5 mg/kg, AFP-695 150 mg/kg
[6] = tested on: male rabbit; test: Mucosecretolytic activity (technique of Giraldez et al); type: in vivo; details: 500 mg/kg/os
Description: The mucosecretolytic activity has been studied in the male rabbit according to the technique of Giraldez, Grass and Bruseghini(Abstr. Comp. Int. Pharm. N. 1086-Paris 1978), by administration by the oral route, comparing AFP-695 with carboxymethylcysteine and sobrerol at the dose hereinafter stated.

[7] = tested on: rat; test: Antiinflammatory activity, subplantar edema by carrageenin; details: Ibuprofen 100 mg/kg os, AFP-695 150 mg/kg os
Procedure: Tests have been performed on the rat, employing the test of the subplantar edema induced by carrageenin. […] After edema induction, the animals of each group have been controlled, every 60 minutes for 5 consecutive hours, in order to point out the evolution of the inflammatory process.

[8] = tested on: mouse; test: Analgesic activity, writhings by phenylquinone; type: in vivo; details: 100 mg/kg os
Procedure: The test of writhings by phenylquinone in the mouse has been used.
The two drugs have been administered per os 30 minutes […] intraperitoneal injection of phenylquinone.

[9] = Pharmacokinetics, plasma and lung levels by gas chromatography; type: in vivo, rats; details: 100 mg/kg per os; at 30 minutes, and in some instance also at 1 hour
Procedure: At the moment of treatment rats were fasting since 18 hours. Rats have been then sacrificed in groups of 4 at different times: 30 min., 1 h, 2 h, 4 h, 6 h.
The concentration both of unchanged products and of their metabolites have been measured by gas chromatography in plasma and in the lung.

[10] = Solubility of the product of the Example; type: physicochemical
Description: Its structure is confirmed by analytical and spectroscopical data. • Elemental analysis: • for C23H3403(M.W. = 358.49) • calcd. % C = 77.05; H = 9.56 • found % C = 76.88; H = 9.60. • I.R. Spectrum • (liquid film; absorption band values are expressed in cm^-1): • stretch 0-H 3400-3250 • stretch C=O 1735 • stretch C-0 1205 • H^1 NMR Spectrum • (recorded in CDCI3, internal reference TMS; values of the chemical shifts are expressed in δ): • 0.65-1.2(m, 12H, -CH(CH3)2, C(CH3)2); • 1.3-2 (m, 12H, CH2―CH―CH2, CH2-CH, CH3-CH, OH mobile); • 2.3 (d, 3H, =C-CH3); • 3.5 (q, 1 H, CH3-CH-CO); • 4.7-5 (m, 1H,―CH―O―CO); • 5.3-5.6 (m, 1H, =CH-CH2); • 6.6-7 (m, 4H, aromatics).

| Compound | decrease of leucocytes number ([1]; 24th hour, equiponderant doses) [%] | % Increase of FlNa(*) in comparison with controls [2] [%] | Mean ulcers size [3] [mm] | % Inhibition in comparison with controls [5] [%] | % Increase of secretion in comparison with controls [6] [%] | AREA % Inhibition in comparison with controls [7] [%] | % Inhibition in comparison with controls [8] [%] | Mean No. of writhings [8] | No. animals with writhings [8] | other results |
| --- | --- | --- | --- | --- | --- | --- | --- | --- | --- | --- |
| CC1=CCC(C(C)(C)O)CC1OC(=O)C(C)c1ccc(CC(C)C)cc1 (stereo not drawn) [AFP-695, 2-methyl-5-(1-hydroxy-1-methylethyl)-cyclohex-2-enyl 2-(4-isobutylphenyl)propionate] | 60.89 | 51.6 | 0.9 ± 0.3 | 78.1 | 35.7 | 42.8 | 71.09 | 3.7 ± 1.2 | 3/10 | decrease of the exudate volume, in comparison with control ([1]; 24th hour, equiponderant doses): 51.02%; decrease of the number of leucocytes ([1]; fifth hour after treatment): 70.91%; decrease of the exudate ([1]; fifth hour after treatment, 30 minutes before intrapleural injection): 41.84%; LD50 ([4]; Swiss, mouse): 1800 mg/kg; LD50 ([4]; Wistar, rat): 2200 mg/kg; AREA Absolute value ([7]; area of limb volume over 0-5 hours): 156.2; MEAN LIMB VOLUME AT DIFFERENT HOURS AFTER TREATMENT 0 ([7]; hour 0, 30 minutes before carrageenin): 22.8; MEAN LIMB VOLUME AT DIFFERENT HOURS AFTER TREATMENT 1 ([7]; hour 1): 27.2; MEAN LIMB VOLUME AT DIFFERENT HOURS AFTER TREATMENT 2 ([7]; hour 2): 29.6; MEAN LIMB VOLUME AT DIFFERENT HOURS AFTER TREATMENT 3 ([7]; hour 3): 31.4; MEAN LIMB VOLUME AT DIFFERENT HOURS AFTER TREATMENT 4 ([7]; hour 4): 32.6; MEAN LIMB VOLUME AT DIFFERENT HOURS AFTER TREATMENT 5 ([7]; hour 5): 34.9; unchanged AFP-695 in plasma [9]: has been found in plasma; solubility in the common organic solvents ([10]; common organic solvents): easily soluble in the common organic solvents; solubility in water ([10]; water): substantially insoluble in water |
| COc1ccc2c3c1O[C@H]1[C@@H](O)C=C[C@H]4[C@@H](C2)N(C)CC[C@@]341 [Codeine, codeine, reference compound] | – | – | – | 76.7 | – | – | – | – | – | – |
| CC(C)Cc1ccc(C(C)C(=O)O)cc1 (stereo not drawn) [Ibuprofen, 2-(4-isobutylphenyl)-propionic acid, reference compound] | 5.58 | – | 9.6 ± 1.8 | – | – | 44.2 | 89.84 | 1.3 ± 0.5 | 1/10 | – |
| CC1=CCC(C(C)(C)O)CC1O (stereo not drawn) [Sobrerol, 2-methyl-5-(1-hydroxy-1-methyl-ethyl)-2-cyclohexen-1-ol, reference compound] | – | 33.4 | – | – | 36.8 | – | – | – | – | – |
